Our source for the melting point values is a melting point compilation (Tetko et al.; mined from patent text by program, amines drawn as free bases though some values may be those of a salt).

Molecules are shown by their SMILES.

Take `COC(=O)c1cc(C=O)c(C(F)(F)F)cc1NC(C)=O`: the melting point lay in the range of 106 to 108 °C.
As for `COc1ccccc1CN1CCCc2cc(OCc3ccccc3)c(OC)cc2C1`, the figure is 105 to 106 °C.
`CCOc1ccc2[nH]ccc2c1OCc1ccccc1`: the melting point fell in the range of 122 to 123 °C.
The same measure for `CC(C)(C)OC(=O)N1CCN(CCCC2(C)Cn3cc([N+](=O)[O-])nc3O2)CC1` (configuration not stated): 166 to 167 °C.
The same measure for `NC(CC1CCCCC1)C(O)C(O)C1CC1` (configuration not stated): 141 to 142 °C; for `COC(=O)c1ccc(CN2C(=O)C3(COc4cc5c(cc43)OCCO5)c3ccccc32)cc1` (configuration not stated): 167 to 169 °C; for `O=C(O)c1ccc(OC(=O)c2cccc(C(=O)Oc3ccc(C(=O)O)cc3)c2)cc1`: 290 to 300 °C.
The same measure for `CC(C)(C)OC(=O)N1CCC(c2cnc3oc(-c4ccc(C(F)(F)F)cc4)nc3c2)CC1`: 184 to 188 °C; for `COc1nc(NC(=O)NS(=O)(=O)c2csc3ccccc23)nc(OC)n1`: 152 °C.
In the case of `COc1cc(C=CC(=O)c2c(OCC=C(C)C)ccc3c(=O)c4ccccc4oc23)cc(OC)c1OC`, the melting point is 153 to 155 °C.
Turning to `COc1ccccc1N1CCN(CCCNC(=O)c2csc3c(=O)cc(-c4ccccc4)oc23)CC1`, the melting point is 161 to 162 °C.
As to `Cc1cc(CC(=O)O)ccc1[N+](=O)[O-]`, the melting point is 95 °C.
Molecule `O=C(N[C@H]1CCN(C(=O)c2cc(C(F)(F)F)cc(C(F)(F)F)c2)[C@H](Cc2ccc(Cl)cc2)C1)c1cc(=O)c2ccc(Cl)cc2o1` had a melting point of 218 to 220 °C.
The same measure for `COC(=O)c1c(F)cc(OCCNC(=O)C2Cc3ccccc3N2S(=O)(=O)c2ccc(-c3ccc(F)cc3C)cc2)cc1F` (configuration not stated): 65 to 72 °C.
The same measure for `CCOC(=O)c1ccc2nc(C)n(Cc3ccccc3Cl)c2c1`: 126 to 127 °C; for `CN(CCN1CCOCC1)c1noc2cc(OC(=O)NCc3ccccc3)ccc12`: 106 to 107 °C; for `O=C(NC(=O)c1c(F)cccc1Cl)Nc1ccc(C(F)(F)F)c(F)c1`: 200 °C.
The same measure for `O=[N+]([O-])c1ccc(Sc2ccccc2)c(CO)c1`: 104 to 107 °C; for `O=C(NC1CC1)c1ccc(CCN2CC=C(c3c[nH]c(-c4ccc(F)cc4)c3-c3ccncc3)CC2)cc1`: 226 to 228 °C; for `COc1cc(-c2ccccc2C(F)(F)F)c(Cl)cc1C(=O)N1Cc2ccc(C(=O)N(C)Cc3cccnc3)n2Cc2ccccc21`: 124 to 126 °C.
Molecule `CCOC(=O)c1c(CC(=O)O)n(-c2ccc(OC(C)C)cc2)c2ccc(Oc3ncccc3C(N)=O)cc12` gave a melting point of 210 to 212 °C.
As for `COc1cc(CO)ncc1C`, the figure is 102 to 104 °C.
Molecule `C=CCC[Si](c1ccccc1)(c1ccccc1)C1SCCCS1` returned a melting point of 47 to 49 °C.
Molecule `CCS(=O)CCNC(=O)C1=C(C(=O)Nc2ccc(Cl)cc2F)CCCC1` (configuration not stated) showed a melting point of 136 to 137 °C.
In turn, `CC(CSC(=O)c1ccccc1)C(=O)N1CC(Oc2ccc(CC3Nc4cc(C(F)(F)F)c(S(N)(=O)=O)cc4S(=O)(=O)N3)cc2)CC1C(=O)O` (configuration not stated) showed a melting point of 170 to 182 °C.
The molecule `O=C(OCc1ccccc1)c1cc2c(=O)n(Cc3ccccc3)c(=O)[nH]c2s1` came in with a melting point of 195 to 197 °C.
As for `Cc1ccccc1Oc1cccc(CC(=O)O)c1O`, the figure is 116 to 117 °C.
`COc1cc(C)c(C)cc1NC(=O)N1CCN(c2ccccc2)CC1` came in with a melting point of 143 to 144 °C.
The same measure for `C#Cc1c(N)cc(-c2ccc(Cl)c(OC)c2F)nc1C(=O)OC`: 167 to 169 °C; for `COc1ccc2c(c1)Sc1c(cc(OC)c(O)c1Br)N2`: 185 °C.
As for `CCCCCCCS(=O)(=O)c1nn2c(=O)c(OC)cnc2s1`, the figure is 106 to 109 °C; as for `COc1cccc(-c2cccc3c2OC(COS(=O)(=O)c2ccc(C)cc2)C3)c1` (configuration not stated), 141 to 142 °C.

Usually melting point stands for the temperature, or range, at which the solid turns liquid.
